Laboratory results from patent US12023399B2, “Cleansing composition with pyrrolidone carboxylic acid” (The Procter & Gamble Company, priority 2021, dated 2024).

Tested on: Staphylococcus aureus (ATCC #6538)
Experiment: S. aureus growth on pH adjusted TSA plates
Assay type: cell-based
Conditions: TSA plate pH 4.51 supplemented with 0.03% PCA, ~48 hrs at 33° C.; pH 5.99 plate without PCA shows colonies
Method: The Staphylococcus aureus (ATCC #6538) bacteria cultures used herein can be created from commercially available Trypticase Soy Agar (TSA) plates that are streaked and incubated 17-20 hours at 35° C.±2° C. The resulting bacteria are grown in a conventional saline buffer solution with the optical density adjusted to deliver 10^9 to 10^10 cfu/mL. A sample of the bulk culture can be diluted 1:1,000,000 in saline buffer. 100 ul of the dilute bacteria culture is streak plated onto a TSA plate that is pH adjusted to pH 5.99 or onto a TSA plate that is pH adjusted to pH 4.51 and supplemented with 0.03% PCA. Plates are incubated ˜48 hrs at 33° C.±2° C. and photographed for growth as shown in FIGS. 2A (with pH 5.99) and 2B (with pH 4.5 and 0.03% PCA).

For `O=C1CC[C@@H](C(=O)O)N1` [PCA, pyrrolidone carboxylic acid], the “S. aureus colonies after incubation” value was “no colonies are observed”.
